“Also recorded” adds a separate entry of the source.
What was measured:
Format in all cases: in vivo
C57BL/6 male mice [1] = assay: Body size and liver appearance of mice after high-fat diet and lumichrome; conditions: HFD mice; for liver appearance (fatty liver): from 21th week of 32 weeks
Source text: (§1) The serum was further analyzed by a dry chemistry auto analyzer (DRI-CHEM NX500i, Fujifilm, Tokyo, Japan) to measure the following blood biochemical values: AST, ALT and LDH. • (4) The mice in all groups were eventually sacrificed by excessive anesthesia, and both the epididymal fat and liver thereof were collected for a weight measurement, wherein the liver was divided into three parts, and a first part thereof, the first liver tissue, was further tested to determine the lipid amount in the liver by a lipid extraction kit (Chloroform-Free) (ab211044, Abeam, Cambridge, UK). • (5) A second part of the liver, the second liver tissue, was soaked in 4% formaldehyde (10% formalin) for frozen section, and the obtained liver tissue section was further subjected to (1) H/E staining and (2) Oil red O (ORO) staining for lipids (Bio-check laboratories, Taipei, Taiwan). • (6) A third part of the liver, the third liver tissue, was subjected to mRNA extraction, and the extracted mRNA was further subjected to quantitative polymerase chain reaction (qPCR). Further, (1) by qPCR with the primers of SEQ ID NO:1 and SEQ ID NO:2, the relative mRNA expression level of Acta2, which relates to liver fibrosis, in the liver in all groups was determined. (2) by qPCR with the primers of SEQ ID NO:3 and SEQ ID NO:4, the relative mRNA expression level of CD36, which affects fat uptake by liver cells, in all groups was determined; and (3) by qPCR with the primers of SEQ ID NO:5 and SEQ ID NO:6, the relative mRNA expression level of FABP1, which affects fat uptake by liver cells, in all groups was determined.

C57BL/6 male mice [2] = assay: Grip strength test by grip strength meter; conditions: lumichrome 0.8 or 4 mg/kg/day oral gavage
C57BL/6 male mice [3] = assay: Weekly weight measurement (weight gain) of high-fat diet mice; conditions: HFD mice, 12 weeks
CD36 = assay: qPCR relative mRNA expression level of CD36 in the liver; conditions: HFD mice
Source text: as §1, with “(2) by qPCR with the primers of SEQ ID NO:3 and SEQ ID NO:4, the relative mRNA expression level of CD36, which affects fat uptake by liver cells, in all groups was determined; and (3) by qPCR with the primers of SEQ ID NO:5 and SEQ ID NO:6, the relative mRNA expression level of FABP1, which affects fat uptake by liver cells, in all groups was determined.” left out

C57BL/6 male mice [4] = assay: Liver sections, H/E staining and Oil red O staining for lipid droplets; conditions: HFD mice, H/E and ORO staining
Source text: as §1, with “(2) by qPCR with the primers of SEQ ID NO:3 and SEQ ID NO:4, the relative mRNA expression level of CD36, which affects fat uptake by liver cells, in all groups was determined; and (3) by qPCR with the primers of SEQ ID NO:5 and SEQ ID NO:6, the relative mRNA expression level of FABP1, which affects fat uptake by liver cells, in all groups was determined.” left out

C57BL/6 male mice [5] = assay: Serum blood biochemical values AST, ALT and LDH by dry chemistry auto analyzer; conditions: HFD mice
Source text: as §1
(§2) The present invention used a statistic and graphing software (prism ver. 6) for data analysis. The data of the numerical mean±standard deviation (SD) of the independent samples in all six groups were firstly obtained, and further subjected to One-way ANOVA for statistics. The post-hoc test was Tukey multiple comparison test. The differences between the groups were analyzed separately, and a p value less than 0.05 indicated a statistically significant difference.

FABP1 = assay: qPCR relative mRNA expression level of FABP1 in the liver; conditions: HFD mice
Source text: as §1, with “(2) by qPCR with the primers of SEQ ID NO:3 and SEQ ID NO:4, the relative mRNA expression level of CD36, which affects fat uptake by liver cells, in all groups was determined; and (3) by qPCR with the primers of SEQ ID NO:5 and SEQ ID NO:6, the relative mRNA expression level of FABP1, which affects fat uptake by liver cells, in all groups was determined.” left out

C57BL/6 male mice [6] = assay: Epididymal fat weight, liver weight and lipid amount in the liver; conditions: HFD mice
Source text: as §1, §2

Acta2 = assay: qPCR relative mRNA expression level of Acta2 in the liver; conditions: HFD mice
Source text: as §1, with “(2) by qPCR with the primers of SEQ ID NO:3 and SEQ ID NO:4, the relative mRNA expression level of CD36, which affects fat uptake by liver cells, in all groups was determined; and (3) by qPCR with the primers of SEQ ID NO:5 and SEQ ID NO:6, the relative mRNA expression level of FABP1, which affects fat uptake by liver cells, in all groups was determined.” left out

[7] = lumichrome high dose 4 mg/kg/day oral gavage
[8] = lumichrome low dose 0.8 mg/kg/day oral gavage
[9] = lumichrome high dose 4 mg/kg/day oral gavage, 4 mg/kg/day

Cc1cc2nc3[nH]c(=O)[nH]c(=O)c3nc2cc1C [lumichrome]
body size of mice (C57BL/6 male mice [1]; [7]): more obvious efficacy to ameliorate the body size increase of mice
liver appearance (fatty liver) (C57BL/6 male mice [1]; [7]): improve the appearance of a fatty liver to regain a blood red color
body size of mice (C57BL/6 male mice [1]; [8]): inhibit the increase of the body size of mice
liver appearance (fatty liver) (C57BL/6 male mice [1]; [8]): improve the appearance of a fatty liver and regain a red color
grip strength (muscular endurance) (C57BL/6 male mice [2]; HFD mice): did not cause a decrease in muscular endurance of mice
grip strength (muscular endurance) (C57BL/6 male mice [2]; control diet mice): did not cause a decrease in muscular endurance of mice
weight gain (C57BL/6 male mice [3]; [9]): ameliorate weight gain increase of mice resulting from the high-fat diet; also recorded: no longer increased greatly at and after the fourth week after providing lumichrome
weight gain (C57BL/6 male mice [3]; [8]): ameliorate weight gain increase of mice resulting from the high-fat diet
relative mRNA expression level of CD36 in the liver (CD36; [7]): less mRNA expression of CD36 and FABP1 than that of the High-fat diet group
relative mRNA expression level of CD36 in the liver (CD36; [8]): less mRNA expression of CD36 and FABP1 than that of the High-fat diet group
lipid droplets size and accumulation in the liver (C57BL/6 male mice [4]; [9]): smaller lipid droplets and less lipid droplets accumulation than those of the High-fat diet group; also recorded: significantly better than that in the HFD-lumichrome in low dose group
lipid droplets size and accumulation in the liver (C57BL/6 male mice [4]; [8]): smaller lipid droplets and less lipid droplets accumulation than those of the High-fat diet group
ALT in the serum (C57BL/6 male mice [5]; [7]): lower than those of the High-fat diet group
AST in the serum (C57BL/6 male mice [5]; [7]): lower than those of the High-fat diet group
LDH in the serum (C57BL/6 male mice [5]; [7]): lower than those of the High-fat diet group
ALT in the serum (C57BL/6 male mice [5]; [8]): lower than those of the High-fat diet group
AST in the serum (C57BL/6 male mice [5]; [8]): lower than those of the High-fat diet group
LDH in the serum (C57BL/6 male mice [5]; [8]): lower than those of the High-fat diet group
relative mRNA expression level of FABP1 in the liver (FABP1; [7]): less mRNA expression of CD36 and FABP1 than that of the High-fat diet group
relative mRNA expression level of FABP1 in the liver (FABP1; [8]): less mRNA expression of CD36 and FABP1 than that of the High-fat diet group
epididymal fat weight (C57BL/6 male mice [6]; [7]): lower than those of the High-fat diet group
lipid amount in the liver (C57BL/6 male mice [6]; [7]): lower than those of the High-fat diet group
liver weight (C57BL/6 male mice [6]; [7]): lower than those of the High-fat diet group
epididymal fat weight (C57BL/6 male mice [6]; [8]): lower than those of the High-fat diet group
liver weight (C57BL/6 male mice [6]; [8]): lower than those of the High-fat diet group
relative mRNA expression level of Acta2 in the liver (Acta2; [7]): less mRNA expression of Acta2 than that of the High-fat diet group
relative mRNA expression level of Acta2 in the liver (Acta2; [8]): less mRNA expression of Acta2 than that of the High-fat diet group

From patent US20250161314A1, “METHOD FOR TREATMENT OR IMPROVEMENT OF NON-ALCOHOLIC FATTY LIVER DISEASE AND OBESITY BY LUMICHROME” (CATHAY GENERAL HOSPITAL, priority 2023, published 2025)
